Laboratory results: BindingDB's records for doi:10.1111/j.1476-5381.1995.tb16628.x (Syntex Discovery Research, 1995)
“And” between values parts separate entries of the source, which are not always exact repeats. Equal values may be shown once.

What was measured:
[1] = molecular target: T1, Alpha-2A adrenergic receptor [16-465] (Rattus norvegicus, UniProt P22909)
T1 construct: 16-465
T1 sequence (P22909 whole entry): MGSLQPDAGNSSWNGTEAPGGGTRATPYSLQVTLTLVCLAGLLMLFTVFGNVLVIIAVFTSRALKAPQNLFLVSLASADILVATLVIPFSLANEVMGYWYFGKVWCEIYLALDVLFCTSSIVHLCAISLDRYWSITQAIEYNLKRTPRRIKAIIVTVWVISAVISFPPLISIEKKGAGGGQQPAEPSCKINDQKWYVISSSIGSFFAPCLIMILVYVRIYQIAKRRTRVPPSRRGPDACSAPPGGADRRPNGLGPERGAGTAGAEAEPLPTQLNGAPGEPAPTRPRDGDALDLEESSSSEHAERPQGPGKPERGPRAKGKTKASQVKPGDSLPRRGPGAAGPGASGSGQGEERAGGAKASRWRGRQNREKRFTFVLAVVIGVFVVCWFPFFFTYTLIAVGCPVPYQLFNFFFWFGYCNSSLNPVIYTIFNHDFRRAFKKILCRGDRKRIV

[2] = molecular target: 5-hydroxytryptamine receptor 2A (Rattus norvegicus, UniProt P14842)
Sequence of 5-hydroxytryptamine receptor 2A (P14842 whole entry): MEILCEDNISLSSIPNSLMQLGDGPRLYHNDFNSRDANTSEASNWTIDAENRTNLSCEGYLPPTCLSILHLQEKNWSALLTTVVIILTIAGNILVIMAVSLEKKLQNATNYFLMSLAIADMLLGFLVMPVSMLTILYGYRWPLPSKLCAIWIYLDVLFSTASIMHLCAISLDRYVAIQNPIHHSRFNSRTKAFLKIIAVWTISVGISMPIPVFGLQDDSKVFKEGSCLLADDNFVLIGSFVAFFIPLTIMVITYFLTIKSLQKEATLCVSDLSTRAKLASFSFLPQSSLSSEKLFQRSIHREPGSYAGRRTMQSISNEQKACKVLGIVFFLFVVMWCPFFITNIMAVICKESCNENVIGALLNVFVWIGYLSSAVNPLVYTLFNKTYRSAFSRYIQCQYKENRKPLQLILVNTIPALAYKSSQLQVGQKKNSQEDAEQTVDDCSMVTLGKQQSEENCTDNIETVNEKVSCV

[3] = molecular target: T2, 5-hydroxytryptamine receptor 1A (Rattus norvegicus, UniProt P19327)
T2 sequence (P19327 whole entry): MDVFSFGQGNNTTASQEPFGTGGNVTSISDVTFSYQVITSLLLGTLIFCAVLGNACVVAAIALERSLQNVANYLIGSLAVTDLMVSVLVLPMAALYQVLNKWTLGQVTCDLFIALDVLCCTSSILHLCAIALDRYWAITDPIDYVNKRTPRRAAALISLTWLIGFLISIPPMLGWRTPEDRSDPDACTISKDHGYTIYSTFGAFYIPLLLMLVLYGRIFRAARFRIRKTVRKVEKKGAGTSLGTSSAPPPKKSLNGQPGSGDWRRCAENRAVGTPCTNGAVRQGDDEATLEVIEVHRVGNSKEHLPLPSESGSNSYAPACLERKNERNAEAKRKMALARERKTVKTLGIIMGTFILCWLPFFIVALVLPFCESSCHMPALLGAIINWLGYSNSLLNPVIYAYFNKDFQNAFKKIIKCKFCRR

[4] = molecular target: T3, Alpha-1B adrenergic receptor (Rattus norvegicus, UniProt P15823)
T3 sequence (P15823 whole entry): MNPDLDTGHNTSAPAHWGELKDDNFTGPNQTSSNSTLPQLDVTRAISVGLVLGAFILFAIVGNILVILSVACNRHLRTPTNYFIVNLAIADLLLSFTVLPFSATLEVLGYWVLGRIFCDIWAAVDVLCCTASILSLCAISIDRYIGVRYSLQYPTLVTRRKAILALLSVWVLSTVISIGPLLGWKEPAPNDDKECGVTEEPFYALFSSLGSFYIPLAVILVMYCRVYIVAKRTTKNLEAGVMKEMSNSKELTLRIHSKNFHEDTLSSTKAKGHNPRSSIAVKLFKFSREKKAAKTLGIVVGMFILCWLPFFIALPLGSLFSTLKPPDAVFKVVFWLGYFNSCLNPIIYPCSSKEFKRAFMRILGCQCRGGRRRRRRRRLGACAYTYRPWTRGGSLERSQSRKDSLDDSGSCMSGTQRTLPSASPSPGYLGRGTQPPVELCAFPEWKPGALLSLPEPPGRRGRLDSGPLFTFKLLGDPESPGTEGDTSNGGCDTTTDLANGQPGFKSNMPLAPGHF

[5] = molecular target: Sigma non-opioid intracellular receptor 1 (Cavia porcellus, UniProt Q60492)
Sequence of Sigma non-opioid intracellular receptor 1 (Q60492 whole entry): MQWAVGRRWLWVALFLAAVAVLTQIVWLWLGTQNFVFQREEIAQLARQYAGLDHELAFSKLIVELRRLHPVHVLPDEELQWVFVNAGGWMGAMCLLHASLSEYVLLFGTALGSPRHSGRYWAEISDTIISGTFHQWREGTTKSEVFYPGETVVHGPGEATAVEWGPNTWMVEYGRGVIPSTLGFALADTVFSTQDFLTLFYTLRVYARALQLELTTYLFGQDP

[6] = molecular target: Beta-1 adrenergic receptor (Rattus norvegicus, UniProt P18090)
Sequence of Beta-1 adrenergic receptor (P18090 whole entry): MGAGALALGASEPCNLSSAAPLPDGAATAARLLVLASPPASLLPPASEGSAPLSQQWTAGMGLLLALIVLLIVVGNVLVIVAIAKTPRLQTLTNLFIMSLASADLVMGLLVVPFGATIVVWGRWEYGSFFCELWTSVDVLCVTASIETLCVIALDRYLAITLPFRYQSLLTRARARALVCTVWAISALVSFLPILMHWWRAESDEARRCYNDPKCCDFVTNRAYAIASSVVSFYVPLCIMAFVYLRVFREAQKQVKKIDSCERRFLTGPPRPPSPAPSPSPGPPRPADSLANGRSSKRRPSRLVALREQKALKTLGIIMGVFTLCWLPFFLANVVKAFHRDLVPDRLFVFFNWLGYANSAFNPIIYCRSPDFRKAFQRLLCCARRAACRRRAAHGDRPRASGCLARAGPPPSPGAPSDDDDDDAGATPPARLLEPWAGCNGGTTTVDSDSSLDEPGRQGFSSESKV

[7] = molecular target: T4, Alpha-1A adrenergic receptor (Rattus norvegicus, UniProt P43140)
T4 sequence (P43140 whole entry): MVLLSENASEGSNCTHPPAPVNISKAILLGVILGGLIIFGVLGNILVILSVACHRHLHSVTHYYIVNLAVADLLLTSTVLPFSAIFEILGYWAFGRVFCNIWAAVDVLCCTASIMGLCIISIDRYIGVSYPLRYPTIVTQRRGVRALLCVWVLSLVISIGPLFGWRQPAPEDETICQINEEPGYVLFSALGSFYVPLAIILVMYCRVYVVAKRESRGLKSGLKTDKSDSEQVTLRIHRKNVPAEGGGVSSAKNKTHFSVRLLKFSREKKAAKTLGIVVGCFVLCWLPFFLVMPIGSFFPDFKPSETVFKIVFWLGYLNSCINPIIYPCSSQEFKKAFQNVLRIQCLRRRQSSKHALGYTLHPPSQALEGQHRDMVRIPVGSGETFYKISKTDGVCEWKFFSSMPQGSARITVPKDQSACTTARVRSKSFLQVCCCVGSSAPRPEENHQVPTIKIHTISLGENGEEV

[8] = molecular target: T5, 5-hydroxytryptamine receptor 2C (Rattus norvegicus, UniProt P08909)
T5 sequence (P08909 whole entry): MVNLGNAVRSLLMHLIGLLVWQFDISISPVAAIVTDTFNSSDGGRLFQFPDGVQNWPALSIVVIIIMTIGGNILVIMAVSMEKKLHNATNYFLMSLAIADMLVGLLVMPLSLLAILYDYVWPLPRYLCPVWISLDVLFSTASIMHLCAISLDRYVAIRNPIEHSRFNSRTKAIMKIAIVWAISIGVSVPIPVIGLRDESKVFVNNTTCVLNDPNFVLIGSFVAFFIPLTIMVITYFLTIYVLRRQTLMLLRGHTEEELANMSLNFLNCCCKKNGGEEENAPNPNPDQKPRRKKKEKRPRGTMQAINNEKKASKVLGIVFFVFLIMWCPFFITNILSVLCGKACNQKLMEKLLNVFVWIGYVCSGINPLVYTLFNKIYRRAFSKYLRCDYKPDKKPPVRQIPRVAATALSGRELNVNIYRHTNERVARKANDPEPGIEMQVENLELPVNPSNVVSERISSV

[9] = molecular target: T6, 5-hydroxytryptamine receptor 3A (Rattus norvegicus, UniProt P35563)
T6 sequence (P35563 whole entry): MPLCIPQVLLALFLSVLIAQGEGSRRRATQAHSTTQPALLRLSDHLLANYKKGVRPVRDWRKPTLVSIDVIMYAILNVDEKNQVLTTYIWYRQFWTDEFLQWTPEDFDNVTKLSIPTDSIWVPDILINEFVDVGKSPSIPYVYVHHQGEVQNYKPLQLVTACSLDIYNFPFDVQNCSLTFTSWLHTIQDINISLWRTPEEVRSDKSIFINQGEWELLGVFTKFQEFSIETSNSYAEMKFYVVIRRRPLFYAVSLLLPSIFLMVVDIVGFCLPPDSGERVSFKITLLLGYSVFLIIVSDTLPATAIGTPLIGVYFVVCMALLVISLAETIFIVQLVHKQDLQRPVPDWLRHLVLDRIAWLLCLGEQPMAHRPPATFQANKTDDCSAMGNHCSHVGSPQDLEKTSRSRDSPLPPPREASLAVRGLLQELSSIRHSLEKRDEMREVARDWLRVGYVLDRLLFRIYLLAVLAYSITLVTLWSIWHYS

[10] = molecular target: 5-hydroxytryptamine receptor 4 (Cavia porcellus, UniProt O70528)
Sequence of 5-hydroxytryptamine receptor 4 (O70528 whole entry): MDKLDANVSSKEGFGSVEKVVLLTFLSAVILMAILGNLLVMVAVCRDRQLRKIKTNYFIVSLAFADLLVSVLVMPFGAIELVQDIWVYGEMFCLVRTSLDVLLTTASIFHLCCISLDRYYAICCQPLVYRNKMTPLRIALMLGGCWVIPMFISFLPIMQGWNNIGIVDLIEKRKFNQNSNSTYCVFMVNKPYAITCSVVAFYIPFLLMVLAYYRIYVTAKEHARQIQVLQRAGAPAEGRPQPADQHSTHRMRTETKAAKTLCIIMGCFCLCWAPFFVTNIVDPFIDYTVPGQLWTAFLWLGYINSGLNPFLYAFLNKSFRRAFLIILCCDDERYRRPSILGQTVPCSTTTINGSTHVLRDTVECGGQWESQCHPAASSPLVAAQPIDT

[11] = molecular target: T7, Alpha-2B adrenergic receptor (Rattus norvegicus, UniProt P19328)
T7 sequence (P19328 whole entry): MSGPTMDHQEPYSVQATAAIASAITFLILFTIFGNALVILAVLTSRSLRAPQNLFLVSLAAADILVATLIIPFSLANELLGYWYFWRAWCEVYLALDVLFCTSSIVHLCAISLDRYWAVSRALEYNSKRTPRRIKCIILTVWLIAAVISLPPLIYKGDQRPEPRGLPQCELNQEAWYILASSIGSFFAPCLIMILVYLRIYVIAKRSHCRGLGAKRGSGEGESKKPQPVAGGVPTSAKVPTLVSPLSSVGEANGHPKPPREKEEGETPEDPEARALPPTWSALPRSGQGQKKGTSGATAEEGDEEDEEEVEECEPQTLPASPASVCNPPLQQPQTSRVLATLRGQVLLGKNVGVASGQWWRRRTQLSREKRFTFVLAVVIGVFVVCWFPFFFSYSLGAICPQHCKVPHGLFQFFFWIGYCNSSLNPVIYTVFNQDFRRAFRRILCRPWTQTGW

[12] = molecular target: T8, Muscarinic acetylcholine receptor M2 (Rattus norvegicus, UniProt P10980)
T8 sequence (P10980 whole entry): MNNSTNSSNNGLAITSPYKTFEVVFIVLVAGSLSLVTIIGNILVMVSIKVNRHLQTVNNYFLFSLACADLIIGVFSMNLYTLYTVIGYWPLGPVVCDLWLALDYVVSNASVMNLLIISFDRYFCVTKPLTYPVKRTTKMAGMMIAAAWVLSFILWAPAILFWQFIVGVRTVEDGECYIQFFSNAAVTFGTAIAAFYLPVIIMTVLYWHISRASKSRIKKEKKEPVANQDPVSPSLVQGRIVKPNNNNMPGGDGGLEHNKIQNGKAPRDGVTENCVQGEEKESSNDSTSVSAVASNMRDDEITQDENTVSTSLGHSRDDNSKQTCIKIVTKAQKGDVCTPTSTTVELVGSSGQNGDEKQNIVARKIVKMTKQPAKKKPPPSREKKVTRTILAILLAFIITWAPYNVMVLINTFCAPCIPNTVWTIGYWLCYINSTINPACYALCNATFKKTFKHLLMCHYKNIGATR

[13] = molecular target: T9, Muscarinic acetylcholine receptor M1 (Rattus norvegicus, UniProt P08482)
T9 sequence (P08482 whole entry): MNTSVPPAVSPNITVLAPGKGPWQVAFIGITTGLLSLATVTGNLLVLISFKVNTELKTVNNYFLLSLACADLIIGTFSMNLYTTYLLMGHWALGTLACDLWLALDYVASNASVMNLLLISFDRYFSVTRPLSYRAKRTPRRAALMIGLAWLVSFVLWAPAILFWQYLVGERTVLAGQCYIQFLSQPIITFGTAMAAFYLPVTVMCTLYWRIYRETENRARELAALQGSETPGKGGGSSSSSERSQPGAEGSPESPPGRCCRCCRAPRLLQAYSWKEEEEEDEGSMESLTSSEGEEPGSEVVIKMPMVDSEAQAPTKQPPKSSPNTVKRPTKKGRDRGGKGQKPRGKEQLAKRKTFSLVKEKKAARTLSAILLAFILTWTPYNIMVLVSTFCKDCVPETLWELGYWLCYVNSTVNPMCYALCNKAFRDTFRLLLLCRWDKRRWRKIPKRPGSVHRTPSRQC

D(1A) dopamine receptor = D(1A) dopamine receptor (Macaca mulatta, UniProt O77680)
Sequence of D(1A) dopamine receptor (O77680 whole entry): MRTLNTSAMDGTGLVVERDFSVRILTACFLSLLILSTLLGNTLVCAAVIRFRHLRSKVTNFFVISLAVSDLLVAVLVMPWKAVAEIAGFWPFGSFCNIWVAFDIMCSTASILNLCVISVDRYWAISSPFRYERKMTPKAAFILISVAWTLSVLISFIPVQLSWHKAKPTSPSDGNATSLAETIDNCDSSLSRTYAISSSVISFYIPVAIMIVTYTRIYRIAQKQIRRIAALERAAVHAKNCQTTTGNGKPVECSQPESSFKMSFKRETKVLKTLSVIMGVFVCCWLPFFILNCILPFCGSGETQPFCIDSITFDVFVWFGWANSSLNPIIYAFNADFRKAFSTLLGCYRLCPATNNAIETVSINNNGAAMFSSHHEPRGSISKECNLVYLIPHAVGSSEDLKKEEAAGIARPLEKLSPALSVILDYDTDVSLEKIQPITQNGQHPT

D(2) dopamine receptor = D(2) dopamine receptor (Sus scrofa, UniProt F1SM69)
Sequence of D(2) dopamine receptor (F1SM69 whole entry): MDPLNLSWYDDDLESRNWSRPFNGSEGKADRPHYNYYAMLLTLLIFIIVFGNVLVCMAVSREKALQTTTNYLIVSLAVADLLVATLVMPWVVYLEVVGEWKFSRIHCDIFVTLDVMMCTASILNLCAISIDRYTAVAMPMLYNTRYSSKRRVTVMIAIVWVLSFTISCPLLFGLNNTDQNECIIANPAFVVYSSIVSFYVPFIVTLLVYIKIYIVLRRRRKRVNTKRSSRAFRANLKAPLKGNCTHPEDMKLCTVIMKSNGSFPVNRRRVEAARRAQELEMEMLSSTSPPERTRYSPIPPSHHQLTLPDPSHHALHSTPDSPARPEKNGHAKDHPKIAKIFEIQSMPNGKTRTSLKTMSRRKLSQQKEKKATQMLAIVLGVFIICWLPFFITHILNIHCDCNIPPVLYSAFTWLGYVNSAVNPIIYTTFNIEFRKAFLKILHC

[14] = molecular target: Beta-2 adrenergic receptor (Rattus norvegicus, UniProt P10608)
Sequence of Beta-2 adrenergic receptor (P10608 whole entry): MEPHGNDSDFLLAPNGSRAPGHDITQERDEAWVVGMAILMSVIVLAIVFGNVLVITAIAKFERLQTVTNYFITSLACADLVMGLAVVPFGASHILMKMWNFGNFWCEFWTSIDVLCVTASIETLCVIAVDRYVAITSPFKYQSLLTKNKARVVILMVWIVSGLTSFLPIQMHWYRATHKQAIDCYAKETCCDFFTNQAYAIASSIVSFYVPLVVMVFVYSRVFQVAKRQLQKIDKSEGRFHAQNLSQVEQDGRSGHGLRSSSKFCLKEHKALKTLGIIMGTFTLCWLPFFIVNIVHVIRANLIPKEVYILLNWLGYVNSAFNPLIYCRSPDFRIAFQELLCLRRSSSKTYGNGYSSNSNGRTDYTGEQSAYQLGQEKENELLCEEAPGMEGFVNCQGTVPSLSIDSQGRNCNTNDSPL

Row | Ki [1] [µM] | Ki [2] [nM] | Ki [3] [nM] | Ki [4] [nM] | Ki [5] | Ki [6] [µM] | Ki [7] [nM] | Ki [8] [nM] | Ki [9] | Ki [10] [nM] | Ki [11] [µM] | Ki [12] [µM] | Ki [13] [µM] | Ki (D(1A) dopamine receptor) [µM] | Ki (D(2) dopamine receptor) [µM] | Ki [14] [µM] | Compound
1 | > 10 | 1000 | 2000 | > 10000 | 12.6 nM and 50.1 nM | > 10 | 398 | 2000 | 2510 nM and 1260 nM | 1.58 | > 10 | > 10 | > 10 | > 10 | > 10 | > 10 | COc1cc(N)c(Cl)cc1C(=O)CCC1CCN(CCNS(C)(=O)=O)CC1 [CAS_133075]
2 | > 10 | 501 |  | 1260 | 1.25 nM and 10 nM | > 10 | 200 | 794 | 398 nM and 1260 nM | 1.99 | > 10 | 5.01 | 6.31 | > 10 | > 10 | > 10 | CCCCN1CCC(CCC(=O)c2cc(Cl)c(N)cc2OC)CC1 [CAS_183782]
